# Source: article PMC6198068, “Discovery of a Novel Nav1.7 Inhibitor From Cyriopagopus albostriatus Venom With Potent Analgesic Efficacy” (Frontiers in Pharmacology, 2018)
# Where a SMILES comes first, the peptide text is derived from it. Bridges are numbered along the chain shown (N, C = ends).
# How the values were obtained:
# [1] = test system: hot plate test in mice; test: Hot plate test; type: in vivo, ICR mice; settings: 55 ± 1°C, 30 min after injection, control 10.6 ± 1.1 s, mean ± SEM, n = 6–8
# Description: The ICR mice (18–22 g) used in this study were purchased from the Experimental Animal Center of SLac-kinda (Changsha, China). The animals were maintained at 20–25°C and freely allowed to standard rodent chow and water ad libitum. Ethical approval for in vivo experiments in animals was approved by the Animal Care and Use Committee (ACUC) at the Hunan Province Animal Management Office (HPAMO).
# According to a previous method ([Meng et al., 2017]), a hot plate apparatus (model YLS-21A, Jinan, China) maintained at 55 ± 1°C, was used to measure the pain threshold of mice subjected to a thermal stimulus. Each female mouse was placed on hot plate to observe its pain response (hind-paw-licking or jumping) acted as its own control. The mice whose latent response times were shorter than 5 s or longer than 30 s were excluded from the test.
# [2] = target: T1, Nav1.4/N655D/Q657E (Rattus norvegicus, UniProt P15390, N655D/Q657E); test: Whole-cell patch-clamp, Nav1.4/N655D/Q657E in HEK293T cells; type: cell-based
# T1 construct: expressed in transfected cells; host or cells: HEK293T
# T1 sequence (P15390 whole entry N655D/Q657E): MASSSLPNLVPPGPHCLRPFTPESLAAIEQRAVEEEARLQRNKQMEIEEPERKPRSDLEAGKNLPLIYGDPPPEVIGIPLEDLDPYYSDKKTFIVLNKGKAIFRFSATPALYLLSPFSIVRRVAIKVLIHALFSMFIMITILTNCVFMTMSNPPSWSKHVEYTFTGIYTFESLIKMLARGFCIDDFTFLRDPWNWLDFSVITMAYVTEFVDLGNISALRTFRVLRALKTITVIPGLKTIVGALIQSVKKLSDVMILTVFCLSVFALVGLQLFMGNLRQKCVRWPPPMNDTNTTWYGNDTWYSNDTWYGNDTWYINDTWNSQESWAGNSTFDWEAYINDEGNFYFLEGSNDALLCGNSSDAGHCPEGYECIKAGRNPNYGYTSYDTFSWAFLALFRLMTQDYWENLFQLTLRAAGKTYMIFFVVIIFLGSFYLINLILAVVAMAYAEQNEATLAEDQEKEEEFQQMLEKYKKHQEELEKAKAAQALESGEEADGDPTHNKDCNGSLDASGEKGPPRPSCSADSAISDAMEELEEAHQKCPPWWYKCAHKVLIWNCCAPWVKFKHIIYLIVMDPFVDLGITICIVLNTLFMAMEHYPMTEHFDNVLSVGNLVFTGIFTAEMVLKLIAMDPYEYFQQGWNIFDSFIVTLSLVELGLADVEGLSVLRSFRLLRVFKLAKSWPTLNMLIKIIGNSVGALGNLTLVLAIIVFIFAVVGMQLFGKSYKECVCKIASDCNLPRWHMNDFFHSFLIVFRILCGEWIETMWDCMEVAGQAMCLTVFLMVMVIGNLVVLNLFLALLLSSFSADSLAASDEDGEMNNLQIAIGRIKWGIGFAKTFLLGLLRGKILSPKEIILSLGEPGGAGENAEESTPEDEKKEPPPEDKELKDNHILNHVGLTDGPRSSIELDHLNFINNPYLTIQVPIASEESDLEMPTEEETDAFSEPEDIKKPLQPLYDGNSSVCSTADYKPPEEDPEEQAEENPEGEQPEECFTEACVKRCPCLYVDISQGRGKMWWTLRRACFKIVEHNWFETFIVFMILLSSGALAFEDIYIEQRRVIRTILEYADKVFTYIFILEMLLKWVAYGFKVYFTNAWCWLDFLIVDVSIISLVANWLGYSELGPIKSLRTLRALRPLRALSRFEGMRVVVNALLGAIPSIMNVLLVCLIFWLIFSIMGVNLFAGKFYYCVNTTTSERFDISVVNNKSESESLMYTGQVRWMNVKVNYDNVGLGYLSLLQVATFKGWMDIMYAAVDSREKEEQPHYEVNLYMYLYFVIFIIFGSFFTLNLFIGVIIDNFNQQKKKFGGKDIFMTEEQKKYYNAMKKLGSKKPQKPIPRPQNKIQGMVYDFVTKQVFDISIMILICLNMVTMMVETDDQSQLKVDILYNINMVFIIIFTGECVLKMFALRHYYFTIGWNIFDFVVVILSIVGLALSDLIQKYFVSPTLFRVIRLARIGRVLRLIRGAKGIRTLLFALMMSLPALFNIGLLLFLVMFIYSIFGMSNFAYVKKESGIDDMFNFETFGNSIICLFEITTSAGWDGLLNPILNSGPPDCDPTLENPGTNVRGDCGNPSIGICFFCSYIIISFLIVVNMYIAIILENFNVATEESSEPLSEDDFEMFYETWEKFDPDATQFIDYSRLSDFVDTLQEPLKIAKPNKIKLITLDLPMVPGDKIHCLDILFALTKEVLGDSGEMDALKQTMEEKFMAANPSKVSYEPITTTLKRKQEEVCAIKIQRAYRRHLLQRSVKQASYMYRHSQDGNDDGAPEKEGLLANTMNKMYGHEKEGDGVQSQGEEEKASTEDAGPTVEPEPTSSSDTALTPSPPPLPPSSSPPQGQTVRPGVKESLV
# Excerpt: (§1) The cDNA genes encoding rat Nav1.4 and human Nav1.7 were subcloned into vectors pRGB4 and pcDNA3.1-mod, respectively. Mutations of rNav1.4 (N655D, Q657E, and N655D/Q657E) and hNav1.7 (D816N, E818Q, and D816N/E818Q) were constructed using the Gene Tailor Site-Directed Mutagenesis system (Invitrogen, Carlsbad, CA, United States), according to the manufacturer’s instructions. Nav1.2–Nav1.7 and mutant plasmids together with eGFP were transiently transfected into HEK293T cells while Nav1.8 together with eGFP was transiently transfected into ND7/23 cells by Lipofectamine 2000 (Invitrogen, Carlsbad, CA, United States). Additionally, plasmids β1- and β2-eGFP encoding the human β1 and β2 subunits, respectively, were co-transfected with those encoding WT Nav1.7 and Nav1.7 mutations in HEK293T cells. […] Cells with green fluorescent protein fluorescence were selected for whole-cell patch-clamp recordings 24 h after transfection.
# (§2) Whole-cell patch-clamp recordings were performed at room temperature (20–25°C) using an EPC 10 USB Patch Clamp Amplifier (HEKA, Elektronik, Lambrecht, Germany). […] Data was analyzed by software Igo Pro 6.10A (WaveMetrics, Lake Oswego, OR, United States), SigmaPlot 10.0 (Sigma-Aldrich, St. Louis, MO, United States), OriginPro 8 (OriginLab Corp., Northampton, MA, United States), and GraphPad Prism 5 (GraphPad Software, San Diego, CA, United States). […]
# [3] = target: T2, Nav1.7/D816N (Homo sapiens, UniProt Q15858, D827N); test: Fast inactivation kinetics in Nav1.7/D816N channel; type: cell-based; settings: 0.2 µM; between -10 mV and +10 mV; n = 7
# T2 construct: expressed in transfected cells; host or cells: HEK293T
# T2 sequence (O60939 30-215): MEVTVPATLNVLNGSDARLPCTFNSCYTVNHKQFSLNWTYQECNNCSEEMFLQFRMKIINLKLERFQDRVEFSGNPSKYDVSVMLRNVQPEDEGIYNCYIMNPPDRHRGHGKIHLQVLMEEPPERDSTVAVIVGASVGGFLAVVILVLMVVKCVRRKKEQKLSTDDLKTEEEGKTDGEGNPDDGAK
# T2 sequence (Q07699 19-218, further chain): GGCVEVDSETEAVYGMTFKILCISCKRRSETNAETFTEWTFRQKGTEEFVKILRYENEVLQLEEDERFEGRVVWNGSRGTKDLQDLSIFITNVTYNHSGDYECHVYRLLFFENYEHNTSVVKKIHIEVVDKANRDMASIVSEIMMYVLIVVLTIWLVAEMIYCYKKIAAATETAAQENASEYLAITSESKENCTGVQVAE
# T2 sequence (Q15858 other isoform, or with tags, fused parts or gaps D816N): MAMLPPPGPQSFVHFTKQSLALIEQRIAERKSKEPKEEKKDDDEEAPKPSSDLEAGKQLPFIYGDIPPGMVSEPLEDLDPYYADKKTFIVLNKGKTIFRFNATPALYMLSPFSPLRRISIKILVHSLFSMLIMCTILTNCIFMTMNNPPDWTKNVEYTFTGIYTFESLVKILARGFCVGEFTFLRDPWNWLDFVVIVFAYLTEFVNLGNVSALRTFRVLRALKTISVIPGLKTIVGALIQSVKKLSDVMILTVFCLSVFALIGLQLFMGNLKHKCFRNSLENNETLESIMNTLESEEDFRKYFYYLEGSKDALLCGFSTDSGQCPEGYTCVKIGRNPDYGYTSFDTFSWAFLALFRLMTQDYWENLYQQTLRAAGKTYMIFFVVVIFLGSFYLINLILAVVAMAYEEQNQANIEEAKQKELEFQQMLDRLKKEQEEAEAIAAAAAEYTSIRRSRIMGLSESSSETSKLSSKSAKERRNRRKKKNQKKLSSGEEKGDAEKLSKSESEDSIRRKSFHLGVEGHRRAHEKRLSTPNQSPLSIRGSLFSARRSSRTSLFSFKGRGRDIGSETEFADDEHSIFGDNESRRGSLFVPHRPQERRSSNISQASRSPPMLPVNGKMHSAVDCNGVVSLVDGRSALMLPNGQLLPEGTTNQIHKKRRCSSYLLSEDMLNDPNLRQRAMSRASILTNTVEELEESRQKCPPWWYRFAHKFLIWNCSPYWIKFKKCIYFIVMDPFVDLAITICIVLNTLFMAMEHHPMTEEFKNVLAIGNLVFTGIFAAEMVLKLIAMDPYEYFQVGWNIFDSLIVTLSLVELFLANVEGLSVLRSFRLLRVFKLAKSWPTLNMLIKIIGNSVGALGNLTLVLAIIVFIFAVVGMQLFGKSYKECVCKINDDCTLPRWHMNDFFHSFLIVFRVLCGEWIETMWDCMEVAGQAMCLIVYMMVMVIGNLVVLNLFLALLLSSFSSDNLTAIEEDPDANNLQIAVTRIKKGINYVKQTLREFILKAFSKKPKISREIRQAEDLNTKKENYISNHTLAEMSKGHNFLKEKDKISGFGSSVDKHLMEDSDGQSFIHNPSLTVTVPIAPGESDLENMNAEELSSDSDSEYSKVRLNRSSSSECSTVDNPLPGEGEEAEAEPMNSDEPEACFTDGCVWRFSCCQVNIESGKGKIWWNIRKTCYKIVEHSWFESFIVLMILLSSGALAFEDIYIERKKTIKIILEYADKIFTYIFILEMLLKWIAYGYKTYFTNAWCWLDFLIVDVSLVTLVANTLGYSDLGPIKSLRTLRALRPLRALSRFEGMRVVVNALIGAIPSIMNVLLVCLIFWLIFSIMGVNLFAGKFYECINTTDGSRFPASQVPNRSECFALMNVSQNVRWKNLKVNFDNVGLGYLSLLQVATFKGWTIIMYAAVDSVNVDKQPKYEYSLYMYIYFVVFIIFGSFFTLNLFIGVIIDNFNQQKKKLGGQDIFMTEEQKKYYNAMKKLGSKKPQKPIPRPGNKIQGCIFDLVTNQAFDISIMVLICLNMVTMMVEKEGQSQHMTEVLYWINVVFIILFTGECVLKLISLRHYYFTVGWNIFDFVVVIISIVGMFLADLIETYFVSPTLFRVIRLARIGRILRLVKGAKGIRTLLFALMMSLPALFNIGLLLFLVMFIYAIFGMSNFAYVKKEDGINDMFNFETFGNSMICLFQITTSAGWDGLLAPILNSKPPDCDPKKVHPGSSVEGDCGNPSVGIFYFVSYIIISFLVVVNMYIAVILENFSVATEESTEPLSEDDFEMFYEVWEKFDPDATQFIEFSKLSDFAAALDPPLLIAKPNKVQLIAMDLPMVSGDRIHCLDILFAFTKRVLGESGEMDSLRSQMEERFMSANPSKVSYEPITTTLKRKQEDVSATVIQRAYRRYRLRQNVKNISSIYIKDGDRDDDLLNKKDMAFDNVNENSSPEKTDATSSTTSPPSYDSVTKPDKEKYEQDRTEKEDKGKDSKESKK
# Excerpt: as §1, with “States).” for “States). Additionally, plasmids β1- and β2-eGFP encoding the human β1 and β2 subunits, respectively, were co-transfected with those encoding WT Nav1.7 and Nav1.7 mutations in HEK293T cells.”
# as §2
# Fast inactivation time constants were calculated by fitting current decay traces with a single exponential function using the I–V protocol described above. […]
# [4] = target: T3, rat Nav1.4 (Rattus norvegicus, UniProt P15390); test: Whole-cell patch-clamp, WT Nav1.4 in HEK293T cells; type: cell-based
# T3 construct: expressed in transfected cells; host or cells: HEK293T
# T3 sequence (P15390 whole entry): as the sequence (P15390 whole entry N655D/Q657E) above, with D655N, E657Q counted along it
# Excerpt: The cDNA genes encoding rat Nav1.4 and human Nav1.7 were subcloned into vectors pRGB4 and pcDNA3.1-mod, respectively. Mutations of rNav1.4 (N655D, Q657E, and N655D/Q657E) and hNav1.7 (D816N, E818Q, and D816N/E818Q) were constructed using the Gene Tailor Site-Directed Mutagenesis system (Invitrogen, Carlsbad, CA, United States), according to the manufacturer’s instructions. Nav1.2–Nav1.7 and mutant plasmids together with eGFP were transiently transfected into HEK293T cells while Nav1.8 together with eGFP was transiently transfected into ND7/23 cells by Lipofectamine 2000 (Invitrogen, Carlsbad, CA, United States). Additionally, plasmids β1- and β2-eGFP encoding the human β1 and β2 subunits, respectively, were co-transfected with those encoding WT Nav1.7 and Nav1.7 mutations in HEK293T cells. Human Nav1.9 was transfected into ND7/23 cells according to a previous report ([Zhou et al., 2017]). HEK293T and ND7/23 cells were grown under standard tissue culture conditions (5% CO2, 37°C) in Dulbecco’s modified Eagle’s medium (DMEM) supplemented with 10% fetal bovine serum (FBS). Cells with green fluorescent protein fluorescence were selected for whole-cell patch-clamp recordings 24 h after transfection.
# Whole-cell patch-clamp recordings were performed at room temperature (20–25°C) using an EPC 10 USB Patch Clamp Amplifier (HEKA, Elektronik, Lambrecht, Germany). Suction pipettes with access resistance of 2.0–3.0 MΩ were made from borosilicate glass capillary tubes (thickness = 0.225 mm) using a two-step vertical microelectrode puller (PC-10; Narishige, Tokyo, Japan). The standard pipet solution contained (in mM): 140 CsCl, 10 NaCl, 1 EGTA, and 10 HEPES (pH 7.4). Bath solution contained (in mM): 140 NaCl, 2 CaCl2, 1 MgCl2, 5 KCl, 20 HEPES (pH 7.4), and 10 glucose. All chemicals were the products of Sigma-Aldrich (St. Louis, MO, United States) and dissolved in water. […] Data was analyzed by software Igo Pro 6.10A (WaveMetrics, Lake Oswego, OR, United States), SigmaPlot 10.0 (Sigma-Aldrich, St. Louis, MO, United States), OriginPro 8 (OriginLab Corp., Northampton, MA, United States), and GraphPad Prism 5 (GraphPad Software, San Diego, CA, United States). […]
# Concentration-response curves were fitted using the following Hill logistic equation: y = fmax − (fmax − fmin)/(1 + (x/IC50)^n), where fmax and fmin, respectively, represent the channel’s maximum and minimum responses to toxins, fmin was set to 0, x represents toxin concentration and n is an empirical Hill coefficient. […] Peak inward currents from steady-state inactivation were normalized by the maximum current amplitude and fit with a Boltzmann equation I = Imin + 1/(1 + exp[Vm − V1/2/k]) where I is the current amplitude measured during the test depolarization, V1/2 is the midpoint of inaction, and k is the slope factor. […]
smiles,measurement,setting,value
"CC(C)C[C@H](NC(=O)[C@H](CC(=O)O)NC(=O)[C@H](Cc1ccc(O)cc1)NC(=O)[C@H](CCCCN)NC(=O)[C@@H]1CSSC[C@@H]2NC(=O)[C@H](CCCCN)NC(=O)[C@H](CC(=O)O)NC(=O)[C@H](CC(N)=O)NC(=O)[C@H](CO)NC(=O)[C@@H]3CCCN3C(=O)[C@H](CC(N)=O)NC(=O)[C@@H]3CSSC[C@H](NC(=O)[C@H](C(C)C)NC(=O)[C@H](CC(C)C)NC(=O)[C@H](CO)NC(=O)[C@H](CO)NC(=O)[C@H](CO)NC(=O)[C@H](CCCCN)NC(=O)[C@H](CSSC[C@H](NC(=O)[C@H](C)N)C(=O)N[C@@H](CC(C)C)C(=O)NCC(=O)N[C@@H](Cc4ccccc4)C(=O)NCC(=O)N[C@@H](CCC(=O)O)C(=O)N[C@@H](CCCCN)C(=O)N3)NC2=O)C(=O)N[C@@H](CO)C(=O)N[C@@H](CCC(N)=O)C(=O)N[C@@H](CCCCN)C(=O)N[C@@H](Cc2c[nH]cn2)C(=O)N[C@@H](CCCCN)C(=O)N[C@@H](Cc2c[nH]c3ccccc23)C(=O)N1)C(=O)O [Ca2a] (H-ACLGFGEKCNPSNDKCCKSSSLVCSQKHKWCKYDL-OH; disulfide 2-17, 9-24, 16-31 (inferred); N-terminus and C-terminus assumed)","latency time, hot plate",[1]; 50 μg/kg i.p.,12.9 ± 0.8 s
same,"latency time, hot plate",[1]; 100 μg/kg i.p.,15.4 ± 1.2 s
same,"latency time, hot plate",[1]; 200 μg/kg i.p.,18.1 ± 1.6 s
same,inhibition of peak current of Nav1.4/N655D/Q657E,"[2]; 1 μM, n = 4–5 cells",significantly inhibited
same,IC50,"[2]; mean ± SEM, n = 4–5 cells per data point",238 ± 26.1 nM
same,inactivation time constant of Nav1.7/D816N,[3],did not alter inactivation time constant
same,inhibitory effect on WT Nav1.4,"[4]; 1 μM, HEK293T, n = 4–5 cells",no inhibitory effect
same,selectivity for Nav1.7 against Nav1.4,[4]; skeletal isoform Nav1.4 vs Nav1.7,more than 100 fold
same,IC50,"[4]; skeletal muscle isoform, whole-cell patch-clamp, HEK293T",> 10000 nM
same,inhibitory effect on Nav1.4 currents,"[4]; up to 10 μM, HEK293T",no inhibitory effects
